Test results as given in patent publication US7951789B2 (priority 2006, dated 2011).
Read-outs that look alike come from different tables or passages of the source.

What was measured:
[1] = tested on: HCV Conl subgenomic replicon (GS4.1 cells); test: HCV replicon assay (NS4A ELISA, HCV ELISA 2); type: cell-based; details: Hepatitis C virus
Method: (§1) Huh-7 cells containing HCV Conl subgenomic replicon (GS4.1 cells), (C. Seeger; Fox Chase University, Philadelphia, Pa., USA), are grown in Dulbecco's Modified Eagle Medium (DMEM) supplemented with 10% fetal bovine serum (FBS), 2 mM L-glutamine, 110 mg/L sodium pyruvate, 1×non-essential amino acids, 100 U/mL penicillin-streptomycin and 0.5 mg/mL G418 (Invitrogen). For dose-response testing, the cells are seeded in 96-well plates at 7.5×10^3 cells/well in a volume of 50 μL and incubated at 37° C./5% CO2. Three hours after plating, 50 μL of ten 2-fold serial dilutions of compounds (highest concentration, 75 μM) are added and cell cultures were incubated at 37° C./5% CO2 in the presence of 0.5% DMSO. Alternatively, compounds are tested at a single concentration of 15 μM. In all cases, Huh-7 cells lacking the HCV replicon served as negative control. The cells are incubated in the presence of compounds for 72 hours after which they were monitored for expression of the NS4A protein by enzyme-linked immunosorbent assay (ELISA). For this, the plates were then fixed for 1 min with 1:1 acetone:methanol, washed twice with phosphate-buffered saline (PBS), 0.1% Tween 20, blocked for 1 hour at room temperature with TNE buffer containing 10% FBS and then incubated for 2 h at 37° C. with the anti-NS4A mouse monoclonal antibody A-236 (ViroGen) diluted in the same buffer. After washing three times with PBS, 0.1% Tween 20, the cells are incubated 1 hour at 37° C. with anti-mouse immunoglobulin G-peroxidase conjugate in TNE, 10% FBS. After washing as described above, the reaction is developed with O-phenylenediamine (Zymed). The reaction is stopped after 30 minutes with […] and the absorbance is read at 492 nm using a Sunrise Tecan spectrophotometer. EC50 values are determined from the % inhibition versus concentration data using a sigmoidal non-linear regression analysis based on four parameters with Tecan Magellan software. […] For cytotoxicity evaluation, GS4.1 cells are treated with compounds as described above and cellular viability was monitored using a Cell Titer 96 AQueous One Solution Cell Proliferation Assay (Promega). CC50 values are determined from the % cytotoxicity versus concentration data with Tecan Magellan software as described above.

[2] = Cytotoxicity evaluation in GS4.1 cells (Cell Titer 96 AQueous One Solution); type: cell-based; details: human; for CC50: 72 hours
Method: as §1

[3] = GS4.1 cells, 72 hours, NS4A ELISA, read-out: HCV ELISA 2 EC50
[4] = 72 h, read-out: HCV ELISA 2 EC50 (μM)

Compound	EC50 [1, 3] [µM]	CC50 [2] [µM]	EC50 [1, 4] [µM]	CC50 at 72 h [2] [µM]
CC(C)(CO)C(=O)SCCOP(=O)(NCc1ccccc1)OC[C@H]1O[C@@H](n2cnc3c(=O)[nH]cnc32)[C@](C)(O)[C@@H]1O (mixture of isomers) [Example B186, Hydroxy-tBuSATE N-benzylphosphoramidate Derivative of 2′-C-methylinosine]	1 to 10	> 75	–	–
CCCCN(CCCC)P(=O)(OCCSC(=O)C(C)(C)CO)OC[C@H]1O[C@@H](n2ccc(N)nc2=O)[C@](C)(O)[C@@H]1O (mixture of isomers) [Example B244, Hydroxy-tBuSATE N,N-(dibutylamine)phosphoramidate Derivative of 2′-C-methylcytidine]	–	–	> 10	> 75
CC(C)(CO)C(=O)SCCOP(=O)(NCc1ccccc1)OC[C@H]1O[C@@H](n2cnc3c(N)ncnc32)[C@](C)(O)[C@@H]1O (mixture of isomers) [Example B263, Hydroxy-tBuSATE N-benzylphosphoramidate Derivative of 2′-C-methyladenosine]	1 to 10	> 75	–	–
CC(C)(CO)C(=O)SCCOP(=O)(NCc1ccccc1)OC[C@H]1O[C@@H](n2cnc3c(=O)[nH]c(N)nc32)[C@](C)(O)[C@@H]1O (mixture of isomers) [Example B299, Hydroxy-tBuSATE N-benzylphosphoramidate Derivative of 2′-C-methylguanosine]	< 1	> 75	–	–
CN(Cc1ccccc1)P(=O)(OCCSC(=O)C(C)(C)CO)OC[C@H]1O[C@@H](n2ccc(N)nc2=O)[C@](C)(O)[C@@H]1O (mixture of isomers) [Example B308, Hydroxy-tBuSATE N-methylbenzylphosphosphoramidate Derivative of 2′-C-methyl-cytidine]	–	–	1 to 10	> 75
CC(C)(CO)C(=O)SCCOP(=O)(OC[C@H]1O[C@@H](n2ccc(N)nc2=O)[C@](C)(O)[C@@H]1O)N1CCCCC1 (mixture of isomers) [Example B353, Hydroxy-tBuSATE N-piperidinephosphosphoramidate Derivative of 2′-C-methyl-cytidine]	–	–	> 10	> 75
CC(C)(CO)C(=O)SCCOP(=O)(OC[C@H]1O[C@@H](n2ccc(N)nc2=O)[C@](C)(O)[C@@H]1O)N1CCOCC1 (mixture of isomers) [Example B391, Hydroxy-tBuSATE N-morpholinophosphosphoramidate Derivative of 2′-C-methylcytidine]	–	–	> 10	> 75
CC(C)(CO)C(=O)SCCOP(=O)(OC[C@H]1O[C@@H](n2ccc(N)nc2=O)[C@](C)(O)[C@@H]1O)N1CCCC1 (mixture of isomers) [Example B395, Hydroxy-tBuSATE N-pyrrolidinephosphosphoramidate Derivative of 2′-C-methylcytidine]	–	–	1 to 10	> 75
CC(C)(CO)C(=O)SCCOP(=O)(NCc1ccccc1)OC[C@H]1O[C@@H](n2cc(F)c3c(N)ncnc32)[C@](C)(O)[C@@H]1O (mixture of isomers) [Example B436, Hydroxy-tBuSATE N-benzylphosphoramidate Derivative of 2′-C-methyl-7-deaza-7-fluoro-adenosine]	1 to 10	> 75	–	–
CC(=O)Nc1ccn([C@@H]2O[C@H](COP(=O)(NCc3ccccc3)OCCSC(=O)C(C)(C)CO)[C@@H](O)[C@@]2(C)O)c(=O)n1 (stereo in doubt) [Example B183, Hydroxy-tBuSATE N-benzylphosphoramidate Derivative of 2′-C-methyl-NH-4-acetyl-cytidine]	> 10	> 75	–	–
CC(C)(CO)C(=O)SCCOP(=O)(NCc1ccccc1C(F)(F)F)OC[C@H]1O[C@@H](n2ccc(N)nc2=O)[C@](C)(O)[C@@H]1O (stereo in doubt) [Example B187, Hydroxy-tBuSATE N-(2-(trifluoromethyl)benzyl)phosphosphoramidate Derivative of 2′-C-methylcytidine]	1 to 10	> 75	–	–
CCCCCCCCN(C)P(=O)(OCCSC(=O)C(C)(C)CO)OC[C@H]1O[C@@H](n2ccc(N)nc2=O)[C@](C)(O)[C@@H]1O (stereo in doubt) [Example B204, Hydroxy-tBuSATE N-(n-methyl-n-octyl-amine)phosphosphoramidate Derivative of 2′-C-methylcytidine]	–	–	1 to 10	> 75
CC(C)(CO)C(=O)SCCOP(=O)(NCc1ccc(C(F)(F)F)cc1)OC[C@H]1O[C@@H](n2cnc3c(=O)[nH]c(N)nc32)[C@](C)(O)[C@@H]1O (stereo in doubt) [Example B242, O-(Hydroxy-tert-butyl-S-acyl-2-thioethyl)-2′-C-methylguanosin-5′-yl-N-(4-trifluoromethyl)-benzylaminyl Phosphate]	< 1	> 75	–	–
CC(C)(CO)C(=O)SCCOP(=O)(NCc1ccccc1)OC[C@H]1O[C@@H](n2cnc3c(=O)[nH]c(N)nc32)[C@]2(C)OC(=O)O[C@H]12 (stereo in doubt) [Example B307, N-Benzylaminyl-O-(hydroxy-tert-butyl-S-acyl-2-thioethyl)-2′,3′-O-carbonate-2′-C-methylguanosin-5′-yl phosphate]	< 1	> 75	–	–
CC(C)(CO)C(=O)SCCOP(=O)(NC1CCCCC1)OC[C@H]1O[C@@H](n2ccc(N)nc2=O)[C@](C)(O)[C@@H]1O (stereo in doubt) [Example B354, Hydroxy-tBuSATE N-cyclohexylaminephosphosphoramidate Derivative of 2′-C-methyl-cytidine]	1 to 10	> 75	–	–
CC(=O)O[C@@H]1[C@@H](COP(=O)(NCc2ccccc2)OCCSC(=O)C(C)(C)CO)O[C@@H](n2ccc(N)nc2=O)[C@]1(C)OC(C)=O (stereo in doubt) [Example B390, Hydroxy-tBuSATE N-benzylphosphoramidate Derivative of 2′-C-methyl-2′,3′-di-O-acetyl-cytidine]	> 10	> 75	–	–
CC(C)(CO)C(=O)SCCOP(=O)(NCc1ccc(C(F)(F)F)cc1)OC[C@H]1O[C@@H](n2ccc(N)nc2=O)[C@](C)(O)[C@@H]1O (stereo in doubt) [Example B399, Hydroxy-tBuSATE N-(4-(trifluoromethyl)benzyl)phosphosphoramidate Derivative of 2′-C-methylcytidine]	1 to 10	> 75	–	–
C#C[C@@]1(F)[C@H](O)[C@@H](COP(=O)(NCc2ccccc2)OCCSC(=O)C(C)(C)CO)O[C@H]1n1cnc2c(=O)[nH]c(N)nc21 (stereo in doubt) [Example B503, N-Benzylaminyl-{9-[(2R)2-deoxy-2-fluoro-2-C-ethynyl-β-D-erythro-furanosyl]-guanin}-5′-yl-O-(hydroxy-tert-butyl-S-acyl-2-thioethyl) Phosphate]	1 to 10	> 75	–	–
C[C@@]1(O)[C@H](O)[C@@H](CO)O[C@H]1n1cnc2c(N)ncnc21 [A374 (NM80), 2′-C-methyladenosine, reference compound]	< 1	≤ 75	–	–
C[C@@]1(O)[C@H](O)[C@@H](CO)O[C@H]1n1ccc(N)nc1=O [A634 (NM107), 2′methyl cytidine, reference compound]	1 to 10	> 75	–	–
C[C@@]1(O)[C@H](O)[C@@H](CO)O[C@H]1n1cnc2c(=O)[nH]c(N)nc21 [A844 (NM 108), 2′-C-methylguanosine, reference compound]	1 to 10	> 75	–	–
C[C@@]1(O)[C@H](O)[C@@H](CO)O[C@H]1n1ccc(=O)[nH]c1=O [C809 (NM106), 2′-C-methyluridine, reference compound]	> 10	> 75	–	–
C[C@@]1(O)[C@H](O)[C@@H](CO)O[C@H]1n1cnc2c(=O)[nH]cnc21 [Example A608, 2′-C-methylinosine, reference compound]	> 10	> 75	–	–
C[C@@]1(O)[C@H](O)[C@@H](CO)O[C@H]1n1cnc2c(Cl)ncnc21 [Example A849, 9-[2-C-methyl-β-ribofuranosyl]-6-chloropurine, reference compound]	< 1	> 75	–	–
CC(C)(CO)C(=O)SCCOP(=O)(NCc1ccccc1)OC[C@H]1O[C@@H](n2ccc(=O)[nH]c2=O)[C@](C)(O)[C@@H]1O (stereo partly shown) [Example B229, Hydroxy-tBuSATE N-benzylphosphoramidate Derivative of 2′-C-methyluridine]	1 to 10	> 75	–	–
CC(C)C(N)C(=O)O[C@@H]1[C@@H](COP(=O)(NCc2ccccc2)OCCSC(=O)C(C)(C)CO)O[C@@H](n2ccc(N)nc2=O)[C@]1(C)O (stereo partly drawn) [Example B234, Hydroxy-tBuSATE N-benzylphosphoramidate Derivative of 3′-O-L-valinyl-2′-C-methylcytidine]	1 to 10	> 75	–	–
